According to patent publication US10660789B2, “1,4-dihydropyridine derivatives with HSP modulating activity” (Richter Gedeon NYRT., priority 2011, dated 2020):
Counter-ions that a name gives are not always drawn.

What was measured:
[1] = test system: other Hsps; assay: Other in vitro HSP modulating effects (Table 3); type: cell-based, mouse and human; set-up: key: +: co-inducing activity; −: silencing activity; 0: with the experimental methods applied no other HSP modulating effects could be identified
Protocol: The Hsp co-inducing effect of the compounds on stress response was tested on B16 mouse melanoma and SHSY5Y human neuroblastoma cell lines stably transfected with Hsp promoter probing plasmids. This kind of promoter probing, using the promoter region of a given gene conjugated with fluorescent protein is used as a best and fastest test system for finding drugs which modulate the activity of the gene followed by the given promoter (Wyshocka et al., Mol. Cel. Biochem. 215:153-156, 2000).
Reporter plasmids, containing the Hsp70 and/or Hsp25 promoter conjugated to either YFP or GFP (yellow or green fluorescent protein), were stably transfected into the cells and the expression of YFP or GFP was followed by flow cytometry. Cells were either kept at 37° C. or exposed to heat shock at 42° C. for 1 hour followed by a 16 hour recovery period at 37° C. in the presence or absence of different concentrations of the test compound. After recovery the expression of YFP or GFP which is in straight correlation with the promoter activity of Hsp70 or Hsp27 genes was followed by measuring the fluorescence intensity of the cells by flow cytometry. Fluorescence intensity is in straight correlation with the amount of fluorescent protein (GFP or YFP) produced under the control of hsp promoter. The mean fluorescence intensity of YFP or GFP produced is shown as “Hsp promoter activity”.
Cells were homogenously distributed on 6-well plates in 1×10^5 cells/well density. B16-pHsp25-GFP and B16-pHsp70-YFP melanoma cells were grown in RPMI-1640 medium supplemented with 10% Fetal bovine serum (FBS), penicillin (200 units/ml), streptomycin (200 μg/ml) and 2 mM L-Glutamine. For maintaining the SH-SY5Y-pHsp25-GFP and SH-SY5YpHsp70-YFP neuroblastoma cell lines Dulbecco's modified Eagle's medium (DMEM-F-12) containing 10% FBS, 2 mM L-Glutamine, penicillin (200 units/ml), streptomycin (200 μg/ml) and MEM non-essential amino acids were used. Before the treatments both cell lines were incubated at 37° C. in a saturated humidity atmosphere containing 95% air and 5% CO2. After 24 h incubation cells were pretreated with compounds of the invention in four different concentrations (usually in 3; 10; 20 and 50 μM) 30 min before the heat shock at 42° C. for 1 h and then incubated further at 37° C. for 16 h (recovery period). After this procedure cells were trypsinized and suspensed in 500 μl serum-free DMEM-F12 medium. The changes in cells' fluorescence were detected using BD FACSCalibur flow cytometer.
SY-SY5Y and B16 cells were extracted in NP-40 lysis buffer (PBS pH 7.4, 1% protease inhibitor coctail and 1% Triton X-100). The cell extracts were then constantly agitated at 4° C. for 2 h. The cell extracts were centrifuged at 12000×g for 30 min and supernatants were saved. After the protein concentration measurement 15 μg of total protein was separated by sodium dodecyl sulfate-polyacrylamide gel electrophoresis (SDS-PAGE) under reducing conditions according to the method of Laemmli. Proteins were blotted onto PVDF membrane. The blot was incubated overnight at 4° C. in the presence of mouse α-Hsp25, α-Hsp70, α-Hsp60 és α-Hsp90 monoclonal antibodies diluted in PBS. Then, the membrane was washed three times in PBS-0.05% Tween and incubated for 1 h in peroxidase-conjugated anti-mouse IgG antibody diluted 1:50000 in PBS containing 3% non-fat dry milk. The immune complexes were detected with chemo-luminescent substrate of peroxidase according to the supplier's instructions. Images taken from the membranes were analyzed using AlphaEase FC software.

Row | SMILES | melting point [°C] | Other in vitro effects [1]
1 | COC(=O)C1=C(C)N(C)C(CCN2CCCC2)=C(C(=O)OC)C1c1ccc(C(F)(F)F)cc1.Cl (centres unmarked) | 218 to 219 | –
2 | COC(=O)C1=C(C)N(C)C(CCN2CCOCC2)=C(C(=O)OC)C1c1ccc(C(F)(F)F)cc1.Cl (centres unmarked) | 188 to 193 | –
3 | COC(=O)C1=C(C)N(C)C(CCN2CCOCC2)=C(C(=O)OC)C1c1ccccc1Cl.Cl (centres unmarked) | 171 to 173 | –
4 | COC(=O)C1=C(C)N(C)C(CCN2CCc3ccccc3CC2)=C(C(=O)OC)C1c1ccc(C(F)(F)F)cc1.O=C(O)/C=C/C(=O)O (centres unmarked) | 202 to 203 | –
5 | COC(=O)C1=C(C)N(C)C(CN2CCCC2)=C(C(=O)OC)C1c1ccc(C(F)(F)F)cc1.Cl (centres unmarked) | 182 to 185 | –
6 | COC(=O)C1=C(C)N(C)C(CN2CCCCC2)=C(C(=O)OC)C1c1ccc(C(F)(F)F)cc1.Cl (centres unmarked) | 190 to 192 | –
7 | COC(=O)C1=C(C#N)N(C)C(CN2CCCC2)=C(C(=O)OC)C1c1ccc(C(F)(F)F)cc1.Cl (centres unmarked) | 173 to 175 | –
8 | COC(=O)C1=C(C#N)N(C)C(CCN(C)C)=C(C(=O)OC)C1c1ccc(C(F)(F)F)cc1.Cl (centres unmarked) | 215 to 216 | –
9 | COC(=O)C1=C(CCN2CCN(C)CC2)N(C)C(CCN2CCN(C)CC2)=C(C(=O)OC)C1c1ccccc1Cl (as salt: hydrochloride) | 210 to 215 | –
10 | COC(=O)C1=C(CCN2CCN(C)CC2)N(C)C(CCN2CCN(C)CC2)=C(C(=O)OC)C1c1ccc(C(F)(F)F)cc1 (as salt: hydrochloride) [Example 16, Dimethyl 1-methyl-2,6-bis-[2-(4-methyl-piperazin-1-yl)-ethyl]-4-(4-trifluoromethylphenyl)-1,4-dihydropyridine-3,5-dicarboxylate hydrochloride] | 195 to 200 | –
11 | COC(=O)C1=C(CCN2CCCC2)N(C)C(CCN2CCCC2)=C(C(=O)OC)C1c1ccccc1Cl (as salt: hydrochloride) [Example 19, Dimethyl 4-(2-chlorophenyl)-1-methyl-2,6-bis-(2-pyrrolidin-1-yl-ethyl)-1,4-dihydropyridine-3,5-dicarboxylate dihydrochloride] | 188 to 193 | –
12 | COC(=O)C1=C(CCN(C)C)N(C)C(CCN(C)C)=C(C(=O)OC)C1c1ccccc1Cl (as salt: hydrochloride) [Example 22, Dimethyl 4-(2-chorophenyl)-2,6-bis-(2-dimethylaminoethyl)-1-methyl-1,4-dihydropyridine-3,5-dicarboxylate dihydrochloride] | 241 to 245 | –
13 | COC(=O)C1=C(CCN(C)C)N(C)C(CCN(C)C)=C(C(=O)OC)C1c1cc(F)cc(F)c1 (as salt: hydrochloride) [Example 25, Dimethyl 4-(3,5-Difluorophenyl)-2,6-bis-(2-dimethylaminoethyl)-1-methyl-1,4-dihydropyridine-3,5-dicarboxylate dihydrochloride] | 261 to 265 | –
14 | COC(=O)C1=C(CCN(C)C)N(C)C(CCN2CCCCC2)=C(C(=O)OC)C1c1ccc(C(F)(F)F)cc1 (centres unmarked) (as salt: hydrochloride) [Example 30, Dimethyl 2-(2-dimethylamino-ethyl)-1-methyl-6-(2-piperidin-1-yl-ethyl)-4-(4-trifluoromethylphenyl)-1,4-dihydropyridine-3,5-dicarboxylate dihydrochloride] | 247 to 249 | –
15 | COC(=O)C1=C(CCN(C)C)N(C)C(CCN2CCOCC2)=C(C(=O)OC)C1c1ccc(C(F)(F)F)cc1 (centres unmarked) (as salt: hydrochloride) [Example 31, Dimethyl 2-(2-dimethylamino-ethyl)-1-methyl-6-(2-morpholin-1-yl-ethyl)-4-(4-trifluoromethylphenyl)-1,4-dihydropyridine-3,5-dicarboxylate dihydrochloride] | 247 to 248 | –
16 | COC(=O)C1=C(CCN(C)C)N(C)C(CCN2CCc3cc(OC)c(OC)cc3C2)=C(C(=O)OC)C1c1ccc(C(F)(F)F)cc1 (centres unmarked) (as salt: hydrochloride) [Example 42, Dimethyl 2-[2-(6,7-dimethoxy-1,2,3,4-tetrahydroisoquinolin-2-yl)-ethyl]-6-(2-dimethylamino-ethyl)-1-methyl-4-(4-trifluoromethylphenyl)-1,4-dihydropyridine-3,5-dicarboxylate dihydrochloride] | 210 to 211 | –
17 | COC(=O)C1=C(C)N(C)C(C)=C(C(=O)OC)C1c1ccc(Cl)cc1 [Example 4, Dimethyl 1,2,6-trimethyl-4-(4-chlorophenyl)-1,4-dihydropyridine-3,5-dicarboxylate] | 179 to 180 | 0
18 | COC(=O)C1=C(C)N(C)C(C)=C(C(=O)OC)C1c1ccc(C)cc1 [Example 5, Dimethyl 1,2,6-trimethyl-4-(4-methylphenyl)-1,4-dihydropyridine-3,5-dicarboxylate] | 176 to 178 | –
19 | COC(=O)C1=C(C)N(C)C(C)=C(C(=O)OC)C1c1ccc(OC)cc1 [Example 6, Dimethyl 1,2,6-trimethyl-4-(4-methoxyphenyl)-1,4-dihydropyridine-3,5-dicarboxylate] | 163 to 164 | 0
20 | COC(=O)C1=C(CCN2CCN(C)CC2)N(C)C(CCN2CCN(C)CC2)=C(C(=O)OC)C1c1ccc(C(F)(F)F)cc1 [Example 16, Dimethyl 1-methyl-2,6-bis-[2-(4-methyl-piperazin-1-yl)-ethyl]-4-(4-trifluoromethylphenyl)-1,4-dihydropyridine-3,5-dicarboxylate hydrochloride] | – | 0
21 | COC(=O)C1=C(C)N(C)C(C)=C(C(=O)OC)C1c1ccccc1Cl [Example 18, Dimethyl 4-(2-chlorophenyl)-1,2,6-trimethyl-1,4-dihydropyridine-3,5-dicarboxylate] | 154 to 155 | –
22 | COC(=O)C1=C(C)N(C)C(C)=C(C(=O)OC(C)C)C1c1ccc(C(F)(F)F)cc1 (centres unmarked) [Example 28, 1,2,6-Trimethyl-4-(4-trifluoromethylphenyl)-1,4-dihydropyridine-3,5-dicarboxylic acid 3-isopropyl ester 5-methyl ester] | 92 to 94 | –
23 | COC(=O)C1=C(C)N(C)C(C)=C(C(=O)OC(C)(C)C)C1c1ccc(C(F)(F)F)cc1 (centres unmarked) [Example 29, 1,2,6-Trimethyl-4-(4-trifluoromethylphenyl)-1,4-dihydropyridine-3,5-dicarboxylic acid 3-tert-butyl ester 5-methyl ester] | 128 to 130 | –
24 | COC(=O)C1=C(C)N(C)C(C)=C(C(=O)O)C1c1ccc(C(F)(F)F)cc1 (centres unmarked) [Example 35, 1,2,6-Trimethyl-4-(4-trifluoromethylphenyl)-1,4-dihydropyridine-3,5-dicarboxylic acid monomethyl ester] | 150 to 155 | –
25 | CC1=C(C(=O)O)C(c2ccc(C(F)(F)F)cc2)C(C(=O)O)=C(C)N1C [Example 36, 1,2,6-Trimethyl-4-(4-trifluoromethylphenyl)-1,4-dihydropyridine-3,5-dicarboxylic acid] | 152 to 153 | –
26 | COC(=O)C1=C(C)N(C)C(CN2CCc3ccccc3C2)=C(C(=O)OC)C1c1ccc(C(F)(F)F)cc1.Cl (centres unmarked) [Example 49, Dimethyl 2-(1,2,3,4-tetrahydro-1H-isoquinolin-2-ylmethyl)-1,6-dimethyl-4-(4-trifluoromethylphenyl)-1,4-dihydropyridine-3,5-dicarboxylate hydrochloride] | 175 to 177 | 0
